Reference: ChEMBL document CHEMBL5291721, “A preclinical secondary pharmacology resource illuminates target-adverse drug reaction associations of marketed drugs” (Nat Commun, 2023)

Columns and labels:
Histamine H1 receptor = Histamine H1 receptor (Homo sapiens, UniProt P35367)
Histamine H2 receptor = Histamine H2 receptor (Homo sapiens, UniProt P25021); type: functional, cell-based
Cannabinoid receptor 1 = Cannabinoid receptor 1 (Homo sapiens, UniProt P21554)
[1] = target: T1, Gastrin/cholecystokinin type B receptor (Homo sapiens, UniProt P32239)
T1 sequence (P32239 whole entry): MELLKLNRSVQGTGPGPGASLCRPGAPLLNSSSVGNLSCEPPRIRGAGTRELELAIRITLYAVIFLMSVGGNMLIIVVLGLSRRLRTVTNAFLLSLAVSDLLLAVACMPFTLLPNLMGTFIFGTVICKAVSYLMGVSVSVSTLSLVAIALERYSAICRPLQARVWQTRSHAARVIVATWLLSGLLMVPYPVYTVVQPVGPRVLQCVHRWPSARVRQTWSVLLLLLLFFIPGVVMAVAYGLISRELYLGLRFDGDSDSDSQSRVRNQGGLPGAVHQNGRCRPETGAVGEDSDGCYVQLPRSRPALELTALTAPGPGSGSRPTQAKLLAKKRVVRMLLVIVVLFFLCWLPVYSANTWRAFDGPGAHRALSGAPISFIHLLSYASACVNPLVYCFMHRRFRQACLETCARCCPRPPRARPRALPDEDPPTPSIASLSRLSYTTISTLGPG

Progesterone receptor [2] = target: T2, Progesterone receptor (Homo sapiens, UniProt P06401); type: functional
T2 sequence (P06401 whole entry): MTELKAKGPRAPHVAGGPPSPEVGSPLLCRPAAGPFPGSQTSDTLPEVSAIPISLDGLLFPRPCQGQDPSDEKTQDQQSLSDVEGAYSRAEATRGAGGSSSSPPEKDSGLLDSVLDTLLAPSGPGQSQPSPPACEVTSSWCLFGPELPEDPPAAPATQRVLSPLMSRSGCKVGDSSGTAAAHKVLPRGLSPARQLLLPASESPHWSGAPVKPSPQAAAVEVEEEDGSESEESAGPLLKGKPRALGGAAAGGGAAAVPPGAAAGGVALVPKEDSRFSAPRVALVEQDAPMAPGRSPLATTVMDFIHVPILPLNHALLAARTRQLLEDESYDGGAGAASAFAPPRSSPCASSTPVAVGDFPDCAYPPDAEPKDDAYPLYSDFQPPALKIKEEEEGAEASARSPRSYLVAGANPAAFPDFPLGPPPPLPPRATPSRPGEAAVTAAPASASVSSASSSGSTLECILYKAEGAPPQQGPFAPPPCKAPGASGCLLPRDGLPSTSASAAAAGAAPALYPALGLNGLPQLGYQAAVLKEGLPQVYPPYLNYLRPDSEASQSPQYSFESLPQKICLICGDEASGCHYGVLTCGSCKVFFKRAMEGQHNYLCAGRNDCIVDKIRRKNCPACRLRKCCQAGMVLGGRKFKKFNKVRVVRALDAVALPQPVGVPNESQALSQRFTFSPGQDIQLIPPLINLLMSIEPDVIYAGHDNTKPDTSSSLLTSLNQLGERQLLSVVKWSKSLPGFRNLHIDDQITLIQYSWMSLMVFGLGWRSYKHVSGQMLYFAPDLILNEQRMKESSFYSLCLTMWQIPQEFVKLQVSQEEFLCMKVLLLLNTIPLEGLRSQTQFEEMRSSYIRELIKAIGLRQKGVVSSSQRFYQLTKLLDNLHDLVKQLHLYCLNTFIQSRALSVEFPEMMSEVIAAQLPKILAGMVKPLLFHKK

Thromboxane A2 receptor = target: T3, Thromboxane A2 receptor (Homo sapiens, UniProt P21731); type: functional, cell-based
T3 sequence (P21731 whole entry): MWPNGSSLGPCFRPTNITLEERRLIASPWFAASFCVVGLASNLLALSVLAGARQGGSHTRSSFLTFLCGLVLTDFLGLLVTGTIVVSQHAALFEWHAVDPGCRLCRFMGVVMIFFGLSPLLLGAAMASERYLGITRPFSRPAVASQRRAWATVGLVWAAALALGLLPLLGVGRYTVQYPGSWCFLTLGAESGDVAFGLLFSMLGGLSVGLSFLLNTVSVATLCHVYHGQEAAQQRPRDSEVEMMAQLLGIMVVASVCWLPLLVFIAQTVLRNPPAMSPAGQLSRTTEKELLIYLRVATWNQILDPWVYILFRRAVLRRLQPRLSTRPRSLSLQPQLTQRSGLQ

Progesterone receptor [3] = target: T2, Progesterone receptor
D(3) dopamine receptor = D(3) dopamine receptor (Homo sapiens, UniProt P35462)
Sequence of D(3) dopamine receptor (P35462 whole entry): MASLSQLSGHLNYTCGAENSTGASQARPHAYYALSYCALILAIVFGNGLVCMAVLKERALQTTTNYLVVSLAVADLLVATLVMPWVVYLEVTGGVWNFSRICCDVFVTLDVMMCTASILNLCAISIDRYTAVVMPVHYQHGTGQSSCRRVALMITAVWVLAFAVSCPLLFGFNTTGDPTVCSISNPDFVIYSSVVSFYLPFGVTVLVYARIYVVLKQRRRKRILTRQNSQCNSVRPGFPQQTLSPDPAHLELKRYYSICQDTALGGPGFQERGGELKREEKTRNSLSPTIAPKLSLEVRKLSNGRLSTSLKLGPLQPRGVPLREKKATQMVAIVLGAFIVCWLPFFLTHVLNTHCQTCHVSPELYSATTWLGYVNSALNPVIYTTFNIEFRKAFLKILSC

[4] = target: 3',5'-cyclic-AMP phosphodiesterase 4A (Homo sapiens, UniProt P27815); type: functional
Sequence of 3',5'-cyclic-AMP phosphodiesterase 4A (P27815 whole entry): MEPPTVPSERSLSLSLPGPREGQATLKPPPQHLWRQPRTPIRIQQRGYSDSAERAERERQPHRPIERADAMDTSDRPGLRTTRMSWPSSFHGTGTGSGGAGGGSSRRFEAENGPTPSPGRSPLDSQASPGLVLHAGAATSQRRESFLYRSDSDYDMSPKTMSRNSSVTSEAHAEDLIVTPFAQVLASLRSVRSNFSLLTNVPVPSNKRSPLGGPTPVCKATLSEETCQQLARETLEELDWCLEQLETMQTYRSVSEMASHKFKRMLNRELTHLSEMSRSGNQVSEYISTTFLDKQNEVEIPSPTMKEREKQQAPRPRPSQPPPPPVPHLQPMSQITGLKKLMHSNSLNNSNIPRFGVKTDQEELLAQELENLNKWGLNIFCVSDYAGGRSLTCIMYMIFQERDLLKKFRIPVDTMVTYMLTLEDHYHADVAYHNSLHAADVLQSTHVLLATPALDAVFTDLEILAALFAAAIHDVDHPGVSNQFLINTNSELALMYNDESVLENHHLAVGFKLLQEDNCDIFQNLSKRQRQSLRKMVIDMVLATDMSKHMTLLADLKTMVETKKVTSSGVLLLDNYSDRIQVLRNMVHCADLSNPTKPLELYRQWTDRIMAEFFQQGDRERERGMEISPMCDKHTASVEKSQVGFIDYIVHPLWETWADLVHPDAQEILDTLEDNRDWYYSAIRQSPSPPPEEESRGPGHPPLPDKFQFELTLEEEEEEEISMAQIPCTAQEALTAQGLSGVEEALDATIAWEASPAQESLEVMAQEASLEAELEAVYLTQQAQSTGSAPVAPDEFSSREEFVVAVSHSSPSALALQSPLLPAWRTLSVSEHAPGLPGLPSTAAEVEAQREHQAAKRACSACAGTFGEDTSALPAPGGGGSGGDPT

Histamine H3 receptor = Histamine H3 receptor (Homo sapiens, UniProt Q9Y5N1)
Sequence of Histamine H3 receptor (Q9Y5N1 whole entry): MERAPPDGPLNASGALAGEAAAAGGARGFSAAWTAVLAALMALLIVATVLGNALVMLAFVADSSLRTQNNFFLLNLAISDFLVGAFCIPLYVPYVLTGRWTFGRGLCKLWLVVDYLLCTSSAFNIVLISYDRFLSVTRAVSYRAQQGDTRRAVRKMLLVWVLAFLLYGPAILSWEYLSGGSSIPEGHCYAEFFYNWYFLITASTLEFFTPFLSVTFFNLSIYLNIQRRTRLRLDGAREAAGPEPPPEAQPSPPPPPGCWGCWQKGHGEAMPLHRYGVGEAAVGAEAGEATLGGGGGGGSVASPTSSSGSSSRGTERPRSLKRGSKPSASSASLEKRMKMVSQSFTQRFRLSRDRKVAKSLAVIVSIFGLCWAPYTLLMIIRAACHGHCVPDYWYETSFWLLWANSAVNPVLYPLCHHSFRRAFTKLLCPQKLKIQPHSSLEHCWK

[5] = target: T4, Alpha-1A adrenergic receptor (Homo sapiens, UniProt P35348); type: functional, cell-based
T4 sequence (P35348 whole entry): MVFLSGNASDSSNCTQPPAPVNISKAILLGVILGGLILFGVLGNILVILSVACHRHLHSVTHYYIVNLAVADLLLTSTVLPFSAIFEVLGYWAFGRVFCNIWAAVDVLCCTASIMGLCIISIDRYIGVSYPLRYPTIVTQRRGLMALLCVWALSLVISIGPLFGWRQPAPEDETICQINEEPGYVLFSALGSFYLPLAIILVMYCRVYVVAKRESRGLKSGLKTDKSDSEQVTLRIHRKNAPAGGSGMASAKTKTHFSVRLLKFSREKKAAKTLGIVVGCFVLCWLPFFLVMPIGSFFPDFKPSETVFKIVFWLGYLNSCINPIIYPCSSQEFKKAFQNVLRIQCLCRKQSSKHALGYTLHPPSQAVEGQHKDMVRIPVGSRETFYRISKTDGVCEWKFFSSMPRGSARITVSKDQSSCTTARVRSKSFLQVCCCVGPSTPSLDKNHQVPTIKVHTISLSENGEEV

Mu-type opioid receptor = Mu-type opioid receptor (Homo sapiens, UniProt P35372)
Sequence of Mu-type opioid receptor (P35372 whole entry): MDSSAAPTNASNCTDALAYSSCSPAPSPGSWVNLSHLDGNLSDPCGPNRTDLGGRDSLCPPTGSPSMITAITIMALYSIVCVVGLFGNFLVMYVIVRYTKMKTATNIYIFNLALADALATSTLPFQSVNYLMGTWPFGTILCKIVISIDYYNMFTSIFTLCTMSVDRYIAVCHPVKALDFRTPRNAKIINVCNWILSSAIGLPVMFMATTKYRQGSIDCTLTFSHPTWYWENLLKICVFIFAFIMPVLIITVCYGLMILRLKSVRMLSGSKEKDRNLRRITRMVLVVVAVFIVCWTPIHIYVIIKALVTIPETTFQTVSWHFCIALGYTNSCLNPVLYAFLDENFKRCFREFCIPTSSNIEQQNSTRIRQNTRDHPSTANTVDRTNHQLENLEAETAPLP

[6] = target: Prostaglandin G/H synthase 1 (Homo sapiens, UniProt P23219); type: functional
Sequence of Prostaglandin G/H synthase 1 (P23219 whole entry): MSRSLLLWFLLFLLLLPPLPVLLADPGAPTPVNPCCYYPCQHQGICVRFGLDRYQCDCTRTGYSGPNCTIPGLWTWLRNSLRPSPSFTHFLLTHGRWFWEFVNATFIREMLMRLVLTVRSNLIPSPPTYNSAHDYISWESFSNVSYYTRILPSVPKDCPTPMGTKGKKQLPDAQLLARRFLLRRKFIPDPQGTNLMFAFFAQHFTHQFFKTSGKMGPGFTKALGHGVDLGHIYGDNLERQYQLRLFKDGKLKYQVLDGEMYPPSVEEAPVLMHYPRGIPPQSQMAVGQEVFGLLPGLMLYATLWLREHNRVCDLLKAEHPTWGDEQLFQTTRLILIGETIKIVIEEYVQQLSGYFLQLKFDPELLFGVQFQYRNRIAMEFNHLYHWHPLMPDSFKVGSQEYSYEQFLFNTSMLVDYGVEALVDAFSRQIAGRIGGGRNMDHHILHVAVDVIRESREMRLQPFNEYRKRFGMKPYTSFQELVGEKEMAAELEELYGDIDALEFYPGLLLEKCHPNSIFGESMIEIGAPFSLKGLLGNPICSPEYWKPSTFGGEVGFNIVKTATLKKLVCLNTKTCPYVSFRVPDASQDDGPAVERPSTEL
Note: assay procedure not described here.

Sequence of Histamine H2 receptor (P25021 whole entry): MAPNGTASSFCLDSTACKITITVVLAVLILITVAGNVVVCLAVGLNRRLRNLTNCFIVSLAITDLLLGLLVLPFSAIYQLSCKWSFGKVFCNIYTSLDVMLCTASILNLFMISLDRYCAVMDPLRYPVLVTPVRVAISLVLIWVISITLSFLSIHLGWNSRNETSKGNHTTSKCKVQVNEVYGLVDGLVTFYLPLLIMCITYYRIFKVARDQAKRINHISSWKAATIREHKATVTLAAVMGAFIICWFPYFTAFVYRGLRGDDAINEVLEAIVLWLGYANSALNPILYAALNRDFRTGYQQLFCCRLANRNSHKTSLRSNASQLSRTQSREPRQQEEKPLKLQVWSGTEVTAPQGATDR
Sequence of Cannabinoid receptor 1 (P21554 whole entry): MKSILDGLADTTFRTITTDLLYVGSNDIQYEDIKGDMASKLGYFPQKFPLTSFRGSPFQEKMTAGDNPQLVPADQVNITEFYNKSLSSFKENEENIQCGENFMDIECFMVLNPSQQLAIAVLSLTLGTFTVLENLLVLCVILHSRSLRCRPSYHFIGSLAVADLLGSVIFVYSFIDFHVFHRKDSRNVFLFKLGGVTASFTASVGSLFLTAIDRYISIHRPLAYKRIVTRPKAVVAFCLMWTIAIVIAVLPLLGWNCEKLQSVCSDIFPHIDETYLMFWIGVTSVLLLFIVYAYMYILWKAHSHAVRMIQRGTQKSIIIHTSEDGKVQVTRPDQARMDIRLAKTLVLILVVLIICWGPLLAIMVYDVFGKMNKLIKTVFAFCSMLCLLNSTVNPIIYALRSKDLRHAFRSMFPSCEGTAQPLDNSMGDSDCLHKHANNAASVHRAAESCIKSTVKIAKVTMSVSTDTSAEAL
Sequence of Histamine H1 receptor (P35367 whole entry): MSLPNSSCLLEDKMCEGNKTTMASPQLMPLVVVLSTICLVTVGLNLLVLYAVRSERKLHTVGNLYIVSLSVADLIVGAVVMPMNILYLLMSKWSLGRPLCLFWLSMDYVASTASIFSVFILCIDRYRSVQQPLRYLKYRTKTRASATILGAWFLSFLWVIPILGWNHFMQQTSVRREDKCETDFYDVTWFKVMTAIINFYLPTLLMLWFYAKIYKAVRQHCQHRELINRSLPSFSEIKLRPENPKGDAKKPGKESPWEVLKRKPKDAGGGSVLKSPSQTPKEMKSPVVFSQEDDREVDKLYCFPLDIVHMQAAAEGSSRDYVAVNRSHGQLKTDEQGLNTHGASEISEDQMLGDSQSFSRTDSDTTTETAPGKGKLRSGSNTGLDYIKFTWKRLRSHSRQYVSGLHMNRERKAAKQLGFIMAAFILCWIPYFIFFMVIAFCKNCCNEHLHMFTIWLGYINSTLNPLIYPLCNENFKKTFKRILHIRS

Row | SMILES | AC50 (Histamine H1 receptor) [µM] | AC50 (Histamine H2 receptor) [µM] | AC50 (Cannabinoid receptor 1) [µM] | AC50 [1] [µM] | AC50 (Progesterone receptor [2]) [µM] | AC50 (Thromboxane A2 receptor) [µM] | AC50 (Progesterone receptor [3]) [µM] | AC50 (D(3) dopamine receptor) [µM] | AC50 [4] [µM] | AC50 (Histamine H3 receptor) [µM] | AC50 [5] [µM] | AC50 (Mu-type opioid receptor) [µM] | AC50 [6] [µM]
1 | Clc1ccc2nsnc2c1NC1=NCCN1 [TIZANIDINE] | > 10 | 0.93 | > 10 | > 30 |  |  |  |  |  |  |  |  | 
2 | Cc1cccc(Nc2ccccc2C(=O)O)c1C [MEFENAMIC ACID] |  | > 10 | > 10 |  | > 10 | > 30 | > 30 | > 30 | > 30 | > 30 | > 30 | > 30 | 0.0115
3 | C[C@@H](O)[C@H]1C(=O)N2C(C(=O)O)=C(S[C@@H]3CN[C@H](C(=O)N(C)C)C3)[C@H](C)[C@H]12 [MEROPENEM] |  | > 10 | > 10 |  | > 300 |  |  |  |  |  |  |  | 
4 | CN(C)/N=N/c1[nH]cnc1C(N)=O [DACARBAZINE] |  | > 10 | > 10 |  | > 10 |  |  |  |  |  |  |  | 
5 | CS(=O)(=O)c1ccc(C2=C(c3ccccc3)C(=O)OC2)cc1 [ROFECOXIB] |  | > 30 | > 10 | > 30 |  | > 30 | > 30 | > 30 | > 30 | > 30 | > 30 | > 30 | 
6 | Cn1nnc2c(C(N)=O)ncn2c1=O [TEMOZOLOMIDE] | > 30 | > 10 | > 10 | > 30 | > 30 |  |  |  |  |  |  |  | 
7 | CN1C(=O)CCS(=O)(=O)C1c1ccc(Cl)cc1 (stereo not given) [CHLORMEZANONE] | > 30 | > 30 | > 10 |  | > 10 |  |  |  |  |  |  |  | 
8 | c1ccc([C@H]2CN3CCSC3=N2)cc1 [LEVAMISOLE] |  | > 30 | > 30 |  | > 30 |  |  |  |  |  |  |  | 
9 | O=C(O[C@H]1C[C@H]2CC[C@@H](C1)[N+]21CCCC1)C(O)(c1ccccc1)c1ccccc1 [TROSPIUM] | 11 | > 30 | > 30 | > 30 | > 30 |  |  |  |  |  |  |  | 
10 | CC(C)C[C@H]1C(=O)N2CCC[C@H]2[C@]2(O)O[C@](NC(=O)[C@@H]3C=C4c5cccc6[nH]c(Br)c(c56)C[C@H]4N(C)C3)(C(C)C)C(=O)N12 [BROMOCRIPTINE] |  | 2.13 | > 10 | > 30 | > 30 | > 3 | > 30 |  | > 30 | > 30 |  | 3.45 | 4.61
11 | CCCSc1ccc2nc(NC(=O)OC)[nH]c2c1 [ALBENDAZOLE] |  | > 10 | > 10 |  | > 10 |  |  |  |  |  |  |  | 
12 | C=CCc1ccccc1OCC(O)CNC(C)C (stereo not given) [ALPRENOLOL] | > 30 | > 30 |  | > 30 | > 30 | > 0.3 | > 0.3 | > 0.3 | > 0.3 | > 0.3 | > 0.3 | > 0.3 | > 0.3
13 | Cc1cn([C@H]2C=C[C@@H](CO)O2)c(=O)[nH]c1=O [STAVUDINE] |  | > 10 | > 10 | > 30 |  | > 30 | > 30 | > 30 | > 30 | > 30 | > 30 | > 30 | > 30
14 | O=P1(NCCCl)OCCCN1CCCl (stereo not given) [IFOSFAMIDE] |  | > 30 | > 30 | > 30 | > 30 |  |  |  |  |  |  |  | 
15 | CCC(C)n1ncn(-c2ccc(N3CCN(c4ccc(OCC5COC(Cn6cncn6)(c6ccc(Cl)cc6Cl)O5)cc4)CC3)cc2)c1=O (stereo not given) [ITRACONAZOLE] |  | > 10 | > 30 | > 30 | > 30 |  |  |  |  |  |  |  | 

More lines, main results first:

Row | AC50 (Histamine H1 receptor) [µM] | AC50 (Histamine H2 receptor) [µM] | AC50 (Cannabinoid receptor 1) [µM] | AC50 [1] [µM] | SMILES | AC50 (Progesterone receptor [2]) [µM] | AC50 (Thromboxane A2 receptor) [µM] | AC50 (Progesterone receptor [3]) [µM] | AC50 (D(3) dopamine receptor) [µM] | AC50 [4] [µM] | AC50 (Histamine H3 receptor) [µM] | AC50 [5] [µM] | AC50 (Mu-type opioid receptor) [µM] | AC50 [6] [µM]
16 | > 30 | > 30 | > 30 | > 30 | COc1ccccc1OCC(O)CN1CCN(CC(=O)Nc2c(C)cccc2C)CC1 (stereo not given) [RANOLAZINE] | > 30 |  |  |  |  |  |  |  | 
17 |  | > 10 | > 10 | > 30 | CCOC(=O)[C@H](CCc1ccccc1)N[C@@H](C)C(=O)N1[C@H](C(=O)O)C[C@@H]2CCC[C@@H]21 |  |  |  |  |  |  |  |  | 
18 |  | 0.95 | > 10 | > 30 | CCCN1C[C@H](CSC)C[C@@H]2c3cccc4[nH]cc(c34)C[C@H]21 [PERGOLIDE] | > 30 |  |  |  |  |  |  |  | 
19 |  | > 10 | > 10 | > 30 | C[C@]12CCC(=O)C=C1CC[C@@H]1[C@@H]2[C@@H](O)C[C@@]2(C)[C@H]1CC[C@]2(O)C(=O)CO [HYDROCORTISONE] |  |  |  |  |  |  |  |  | 
20 | > 30 | > 10 | 20.7 | 45 | O=C1Nc2ccc(Cl)cc2[C@@](C#CC2CC2)(C(F)(F)F)O1 [EFAVIRENZ] | 14 |  |  |  |  |  |  |  | 
21 | > 10 | > 10 | > 10 |  | Nc1ccn([C@H]2CC[C@@H](CO)O2)c(=O)n1 [ZALCITABINE] |  |  |  |  |  |  |  |  | 
22 |  | > 30 | > 10 | > 30 | CC1=C(C(=O)O)N2C(=O)[C@@H](NC(=O)[C@H](N)c3ccccc3)[C@H]2SC1 [CEPHALEXIN ANHYDROUS] |  |  |  |  |  |  |  |  | 
23 |  | > 10 | 12.8 |  | Clc1ccc(C(c2ccccc2Cl)C(Cl)Cl)cc1 (stereo not given) [MITOTANE] |  |  |  |  |  |  |  |  | 
24 | > 30 | > 30 | > 30 | > 30 | CCCCN1C[C@H](O)[C@@H](O)[C@H](O)[C@H]1CO | > 30 |  |  |  |  |  |  |  | 
25 | > 10 | > 10 | > 10 |  | NS(=O)(=O)Cc1noc2ccccc12 [ZONISAMIDE] | > 10 |  |  |  |  |  |  |  | 
26 |  | > 10 | > 10 | > 30 | CN(C)CCC(c1ccc(Cl)cc1)c1ccccn1 (stereo not given) [CHLORPHENIRAMINE] |  |  |  |  |  |  |  |  | 
27 |  | > 10 | > 10 | > 10 | Cc1ccc(-c2cc(C(F)(F)F)nn2-c2ccc(S(N)(=O)=O)cc2)cc1 [CELECOXIB] |  |  |  |  |  |  |  |  | 
